For assay [1], the system named is Canis familiaris. Put plainly: Increasing effect on vertebral blood flow in anesthetized dogs compared to the effect of trapidil. Type of assay: functional, Canis lupus familiaris.
For assay [2], the system named is Canis familiaris. The assay is described as follows: Increasing effect on femoral blood flow in anesthetized dogs compared to the effect of trapidil. Format: functional, Canis lupus familiaris, Artery.
In assay [3] the test system is Canis familiaris. Put plainly: Compound was tested for its hemodynamic effect for percentage change in mean blood pressure in anesthetized Dogs. Format: functional, Canis lupus familiaris.
The test system of assay [4] is Canis familiaris. Put plainly: Compound was tested for its hemodynamic effect for percentage change in vertebral blood flow in anesthetized dogs. Format: functional, Canis lupus familiaris.
Assay [5] deals with Canis familiaris. Put plainly: Compound was tested for its hemodynamic effect for percentage change in coronary blood flow in anesthetized Dogs. Format: functional, Canis lupus familiaris, Artery.
Assay [6] has as its system Canis familiaris. Put plainly: Compound was tested for its hemodynamic effect for percentage change in heart rate in anesthetized Dogs. Type of assay: functional, Canis lupus familiaris.

The source of these data is ChEMBL document CHEMBL1124336, “5-Isoquinolinesulfonamide derivatives. 2. Synthesis and vasodilatory activity of N-(2-aminoethyl)-5-isoquinolinesulfonamide derivatives” (1989).

A value given as a limit tells only on which side of the number the result lay.

Regarding `Cl.NNS(=O)(=O)c1cccc2cnccc12`, the Vertebral blood flow in the assay with Canis familiaris [1] is reported as over 100.

Consider `CN(CCNS(=O)(=O)c1cccc2cnccc12)C1CCCCC1`, for which the Femoral blood flow in the assay with Canis familiaris [2] is given as 0.83. The Vertebral blood flow with Canis familiaris [1] was determined as 1.7.

In the case of `O=[N+]([O-])c1ccc(CNCCNS(=O)(=O)c2cccc3cnccc23)cc1`, the Femoral blood flow in the assay with Canis familiaris [2] came out at 2.5. This molecule also gave a Vertebral blood flow in the assay with Canis familiaris [1] of 1.5.

The molecule `CCCCCCCCN(CCN)S(=O)(=O)c1cccc2cnccc12` displayed a Vertebral blood flow with Canis familiaris [1] of 0.92.

As to `CCCCCCN(CCN)S(=O)(=O)c1cccc2cnccc12`, the Change in the assay with Canis familiaris [3] is listed as -11.4%; with Canis familiaris [4] it was 91.4%; in the assay with Canis familiaris [5], 53.6%; with Canis familiaris [6], 2.8%. The molecule further returned a Vertebral blood flow with Canis familiaris [1] of 0.12.

Regarding `CCCCCCN(CCCCCC)CCNS(=O)(=O)c1cccc2cnccc12`, in the assay with Canis familiaris [2], the Femoral blood flow was 1.2. Besides, the Vertebral blood flow with Canis familiaris [1] is listed as 0.48.

On to `O=S(=O)(NCCNC1CCCCC1)c1cccc2cnccc12`, for which the Vertebral blood flow in the assay with Canis familiaris [1] is reported as 1.4.

For `CN(C)CCNS(=O)(=O)c1cccc2cnccc12`, the Vertebral blood flow with Canis familiaris [1] was determined as 1.4.

In the assay on Canis familiaris [2], `CCCCCNCCNS(=O)(=O)c1cccc2cnccc12` returned a Femoral blood flow of 1. In the assay on Canis familiaris [1], this molecule gave a Vertebral blood flow of 2.4.

`NCCCNS(=O)(=O)c1cccc2cnccc12` displayed a Femoral blood flow with Canis familiaris [2] of 3.6. For the same molecule, in the assay on Canis familiaris [1], the Vertebral blood flow came to 5.1.

The molecule `CCCCCCCCCCNCCNS(=O)(=O)c1cccc2cnccc12` displayed a Vertebral blood flow with Canis familiaris [1] of 0.49.

In the assay on Canis familiaris [2], `NCCCCCCNS(=O)(=O)c1cccc2cnccc12` showed a Femoral blood flow of 2.4. The same molecule registered a Vertebral blood flow with Canis familiaris [1] of 1.4.

Take `CN(CCN)S(=O)(=O)c1cccc2cnccc12`: the Vertebral blood flow in the assay on Canis familiaris [1] is on record as 1.6.

Take `O=S(=O)(NCCNCc1ccccc1Cl)c1cccc2cnccc12`: the Femoral blood flow in the assay on Canis familiaris [2] is 2.6. In addition, in the assay on Canis familiaris [1], the Vertebral blood flow was found to be 1.5.

Regarding `O=S(=O)(NCCNCc1ccccc1)c1cccc2cnccc12`, the Vertebral blood flow in the assay on Canis familiaris [1] amounted to 0.57.

For the molecule `CCCCCCNCCNS(=O)(=O)c1cccc2cnccc12`, the Change in the assay with Canis familiaris [3] was -16.8%; in the assay on Canis familiaris [4] it was 93.7%; in the assay with Canis familiaris [5] it was 45.7%; in the assay on Canis familiaris [6] it was 3.9%. The Femoral blood flow in the assay with Canis familiaris [2] was 0.23. In the assay with Canis familiaris [1], this molecule came in with a Vertebral blood flow of 0.17.

As to `O=S(=O)(c1cccc2cnccc12)N(CCNCc1ccccc1)Cc1ccccc1`, the Vertebral blood flow in the assay with Canis familiaris [1] was 1.8.

With `CNCCNS(=O)(=O)c1cccc2cnccc12`, the Femoral blood flow with Canis familiaris [2] was found to be 1.7. Moreover, the Vertebral blood flow with Canis familiaris [1] was 3.7.

In the case of `CCNCCN(CC)S(=O)(=O)c1cccc2cnccc12`, the Femoral blood flow in the assay with Canis familiaris [2] is 1.1. This molecule also gave a Vertebral blood flow in the assay with Canis familiaris [1] of 0.78.

For `COc1ccc(CNCCNS(=O)(=O)c2cccc3cnccc23)cc1OC`, in the assay on Canis familiaris [2], the Femoral blood flow was found to be 3.7. For the same molecule, the Vertebral blood flow in the assay with Canis familiaris [1] worked out at 4.3.

Regarding `CC(C)N(CCN)S(=O)(=O)c1cccc2cnccc12`, the Vertebral blood flow in the assay on Canis familiaris [1] is recorded as 3.3.

Take `O=S(=O)(NCCNCc1cccc(Cl)c1)c1cccc2cnccc12`: in the assay with Canis familiaris [2], the Femoral blood flow worked out at 0.83. Also, the Vertebral blood flow in the assay on Canis familiaris [1] is 0.26.

For the molecule `CC(C)N(CCNS(=O)(=O)c1cccc2cnccc12)C(C)C`, in the assay on Canis familiaris [1], the Vertebral blood flow is listed as 2.7.

`CCCCNCCNS(=O)(=O)c1cccc2cnccc12` had a Femoral blood flow in the assay with Canis familiaris [2] of 1.3. For the same molecule, the Vertebral blood flow with Canis familiaris [1] is on record as 4.6.

The molecule `COc1ccc(CNCCNS(=O)(=O)c2cccc3cnccc23)cc1` gave a Femoral blood flow with Canis familiaris [2] of 0.43. For the same molecule, the Vertebral blood flow in the assay with Canis familiaris [1] amounted to 0.38.

As for `CCCCCCCCNCCNS(=O)(=O)c1cccc2cnccc12`, the Vertebral blood flow in the assay with Canis familiaris [1] is listed as 0.53.

For `CCCNCCNS(=O)(=O)c1cccc2cnccc12`, the Femoral blood flow in the assay with Canis familiaris [2] is 1.6. The same molecule displayed a Vertebral blood flow in the assay with Canis familiaris [1] of 2.7.

In the assay on Canis familiaris [2], `O=S(=O)(NCCNCCc1ccccc1)c1cccc2cnccc12` gave a Femoral blood flow of 0.32. Further, the Vertebral blood flow in the assay on Canis familiaris [1] stood at 0.31.

In the assay with Canis familiaris [2], `NCCNS(=O)(=O)c1cccc2cnccc12` yielded a Femoral blood flow of 2. The molecule also registered a Vertebral blood flow with Canis familiaris [1] of 1.8.

In turn, `NCCCCNS(=O)(=O)c1cccc2cnccc12` came in with a Femoral blood flow in the assay on Canis familiaris [2] of 2.7. Also, the Vertebral blood flow with Canis familiaris [1] turned out to be 4.2.

The molecule `CCCCN(CCN)S(=O)(=O)c1cccc2cnccc12` had a Vertebral blood flow with Canis familiaris [1] of 0.27.

Regarding `NCCN(Cc1ccccc1)S(=O)(=O)c1cccc2cnccc12`, in the assay on Canis familiaris [1], the Vertebral blood flow is listed as 1.92.

The molecule `CCCCCCN(CCC)CCNS(=O)(=O)c1cccc2cnccc12` returned a Femoral blood flow in the assay on Canis familiaris [2] of 1.9. In the assay on Canis familiaris [1], this molecule registered a Vertebral blood flow of 1.7.

In the assay with Canis familiaris [2], `CNCCN(C)S(=O)(=O)c1cccc2cnccc12` came in with a Femoral blood flow of 1.5. In the assay with Canis familiaris [1], this molecule gave a Vertebral blood flow of 1.3.

With `CCNCCNS(=O)(=O)c1cccc2cnccc12`, the Femoral blood flow in the assay on Canis familiaris [2] is given as 2.7. Also, the Vertebral blood flow in the assay on Canis familiaris [1] turned out to be 4.2.

The molecule `CCN(CCN)S(=O)(=O)c1cccc2cnccc12` displayed a Vertebral blood flow in the assay on Canis familiaris [1] of 1.3.

`O=S(=O)(NCCNCc1ccc(Cl)cc1)c1cccc2cnccc12`: the Femoral blood flow in the assay with Canis familiaris [2] is given as 1. The molecule also showed a Vertebral blood flow with Canis familiaris [1] of 0.25.

As for `COc1ccc([C@@H]2Sc3ccccc3N(CCN(C)C)C(=O)[C@@H]2OC(C)=O)cc1` [DILTIAZEM], the Change in the assay with Canis familiaris [3] was -28.9%; with Canis familiaris [4], 180%; in the assay on Canis familiaris [5] it was 91.3%; in the assay with Canis familiaris [6], -8%. Also, in the assay on Canis familiaris [2], the Femoral blood flow was 0.21. The molecule also displayed a Vertebral blood flow in the assay with Canis familiaris [1] of 0.15.
